The results in this text go back to patent publication US12448388B2, “PRMT5 inhibitors and uses thereof” (Gilead Sciences, Inc., priority 2023, dated 2025).

Assay [1] relates to Symmetric Di-methyl Arginine (SDMA) signal (PRMT5 inhibition) in HCT116 MTAP-deleted cells. In words: Symmetric di-methyl arginine image-based high content screen assay (SDMA assay), HCT116 MTAP-deleted. The class given is cell-based. Particulars: for EC50 selectivity: HCT116 WT versus HCT116 MTAP-deleted; for EC50: Homo sapiens, HCT-116, HCT116 MTAP-deleted, class symbols. Summed up:
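Read-out is imaging of per-cell mean SDMA immunofluorescence (Alexa 488), with cells segmented by DAPI. Cells, MTAP-deleted or wild-type HCT116, were exposed to compound for 3 days at 37 °C before fixation. EC50 derived by 4-parameter non-linear logistic regression.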

The subject of assay [2] is HCT116 MTAP-deleted cell lines. Briefly: Cell viability assay (CellTiter-Glo, 7 days), HCT116 MTAP-deleted. In kind it is cell-based. Particulars: Homo sapiens, HCT-116; cell viability, HCT116 MTAP-deleted; class symbols; read-out: CC50. The method in brief: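 Dose-response, PRMT5 inhibitors from DMSO serial dilution, pre-spotted; cells seeded onto compound plates. 7 d, 37 °C/5% CO2/90% RH. Readout: CTG luminescence → CC50.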

For `Nc1nc2cc(F)c(C(=O)N(Cc3ccc(C(F)(F)F)cc3F)C(CO)CO)cc2n2cncc12` [Ff-27, 4-amino-7-fluoro-N-[[2-fluoro-4-(trifluoromethyl)phenyl]methyl]-N-[2-hydroxy-1-(hydroxymethyl)ethyl]imidazo[1,5-a]quinoxaline-8-carboxamide], in assay [1], the EC50 selectivity stood at 51 and the EC50 is over 5 nM. In addition, the CC50 in assay [2] was over 1000 nM.

In assay [1], `Nc1nc2cc(F)c(C(=O)N3CCC4CC3c3ccc(C(F)(F)F)cc34)cc2n2cncc12` (stereo not drawn) [Ff-29, (4-amino-7-fluoroimidazo[1,5-a]quinoxalin-8-yl)(7-(trifluoromethyl)-1,3,4,5-tetrahydro-2H-1,5-methanobenzo[c]azepin-2-yl)methanone] gave an EC50 selectivity of 308 and an EC50 of 1 to 5 nM. Moreover, in assay [2], the CC50 fell in the range of 100 to 1000 nM.

As to `CN(Cc1ccc(Cl)cc1C#N)C(=O)c1cc2c(cc1F)nc(N)c1cncn12` [Ff-32, 4-amino-N-(4-chloro-2-cyanobenzyl)-7-fluoro-N-methylimidazo[1,5-a]quinoxaline-8-carboxamide], in assay [1], the EC50 selectivity amounted to 346 and the EC50 was 1 to 5 nM. Moreover, the CC50 in assay [2] was 100 to 1000 nM.

For the compound `Cc1ncn2c(N)nc3cc(F)c(C(=O)N(Cc4ccc(C(F)(F)F)cn4)[C@H](C)c4ncccn4)cc3c12` [Ff-54, (R)-5-amino-8-fluoro-1-methyl-N-(1-(pyrimidin-2-yl)ethyl)-N-((5-(trifluoromethyl)pyridin-2-yl)methyl)imidazo[1,5-c]quinazoline-9-carboxamide], in assay [1], the EC50 selectivity is recorded as 95 and the EC50 fell in the range of 1 to 5 nM. In addition, the CC50 in assay [2] is under 100 nM.

In assay [1], `CN(C(=O)c1cc2c(cc1F)nc(N)c1cncn12)[C@@H]1CC2(CC2)c2cc(C(F)(F)F)ccc21` [Ff-58, (R)-4-amino-7-fluoro-N-methyl-N-(6′-(trifluoromethyl)-2′,3′-dihydrospiro[cyclopropane-1,1′-inden]-3′-yl)imidazo[1,5-a]quinoxaline-8-carboxamide] yielded an EC50 selectivity of 166 and an EC50 of 1 to 5 nM. In addition, in assay [2], the CC50 was under 100 nM.

In assay [1], `Cc1ncc2c(N)nc3cc(F)c(C(=O)N(C)[C@@H]4COc5cc(C(F)(F)F)ccc54)cc3n12` [Ff-59, (S)-4-amino-7-fluoro-N,1-dimethyl-N-(6-(trifluoromethyl)-2,3-dihydrobenzofuran-3-yl)imidazo[1,5-a]quinoxaline-8-carboxamide] displayed an EC50 selectivity of 65 and an EC50 of 1 to 5 nM. The CC50 in assay [2] was under 100 nM.

In the case of `Cc1ncc2c(N)nc3ccc(C(=O)N4CCC5(CC4)CC(=O)c4ccccc4O5)cc3n12` [Ff-60, 1′-(4-amino-1-methylimidazo[1,5-a]quinoxaline-8-carbonyl)spiro[chromane-2,4′-piperidin]-4-one], in assay [1], the EC50 selectivity came out at 371 and the EC50 was over 5 nM. Besides, the CC50 in assay [2] is 100 to 1000 nM.

In assay [1], `Nc1nc2cc(F)c(C(=O)N3CC4CC(C3)c3ccccc34)cc2n2cncc12` [Ff-62, (4-amino-7-fluoroimidazo[1,5-a]quinoxalin-8-yl)(1,2,4,5-tetrahydro-3H-1,5-methanobenzo[d]azepin-3-yl)methanone] displayed an EC50 selectivity of 178 and an EC50 of over 5 nM. In addition, the CC50 in assay [2] is over 1000 nM.

As to `C[C@H]1CN(C(=O)c2cc3c(cc2Cl)nc(N)c2cncn23)[C@@H](c2ccc(C(F)(F)F)cn2)CO1` [Ff-138, (4-amino-7-chloroimidazo[1,5-a]quinoxalin-8-yl)((2S,5S)-2-methyl-5-(5-(trifluoromethyl)pyridin-2-yl)morpholino)methanone], in assay [1], the EC50 selectivity was 20 and the concentration for a half-maximal effect (EC50) was at most 1 nM. For the same compound, the CC50 in assay [2] is under 100 nM.

With `CN(C(=O)c1cc2c(cc1F)nc(N)c1cncn12)[C@@H]1COc2cc(N3CCOCC3)ccc21` [Ff-144, (S)-4-amino-7-fluoro-N-methyl-N-(6-morpholino-2,3-dihydrobenzofuran-3-yl)imidazo[1,5-a]quinoxaline-8-carboxamide], in assay [1], the EC50 selectivity is 157 and the EC50 lay within 1 to 5 nM. For the same compound, the CC50 in assay [2] is under 100 nM.

In the case of `C[C@H]1CN(C(=O)c2cc3c(cc2F)nc(N)c2cncn23)[C@H]2c3cc(F)c(Br)cc3C[C@H]2O1` [Ff-165, (4-amino-7-fluoroimidazo[1,5-a]quinoxalin-8-yl)((2S,4aS,9aR)-7-bromo-6-fluoro-2-methyl-2,3,9,9a-tetrahydroindeno[2,1-b][1,4]oxazin-4(4aH)-yl)methanone], in assay [1], the EC50 selectivity is given as 43 and the EC50 was at most 1 nM. In addition, the CC50 in assay [2] was under 100 nM.

In assay [1], `Nc1nc2cc(F)c(C(=O)N3CCO[C@@H]4Cc5cc(C(F)F)ccc5[C@@H]43)cc2n2cncc12` [Ff-167, (4-amino-7-fluoroimidazo[1,5-a]quinoxalin-8-yl)((4aS,9aR)-7-(difluoromethyl)-2,3,9,9a-tetrahydroindeno[2,1-b][1,4]oxazin-4(4aH)-yl)methanone] displayed an EC50 selectivity of 44 and an EC50 of 1 to 5 nM. Moreover, in assay [2], the CC50 is under 100 nM.

In assay [1], `C[C@H]1CN(C(=O)c2cc3c(cc2F)nc(N)c2cncn23)[C@H]2c3cc(F)c(C4CC4)cc3C[C@H]2O1` [Ff-201, (4-amino-7-fluoroimidazo[1,5-a]quinoxalin-8-yl)((2S,4aS,9aR)-7-cyclopropyl-6-fluoro-2-methyl-2,3,9,9a-tetrahydroindeno[2,1-b][1,4]oxazin-4(4aH)-yl)methanone] gave an EC50 selectivity of 58 and an EC50 of 1 to 5 nM. In addition, the CC50 in assay [2] is under 100 nM.

Take `Nc1nc2cc(F)c(C(=O)N(Cc3ccc(C(F)(F)F)cc3F)C34CC(C3)C4)cc2n2cncc12` [Ff-210, 4-amino-N-(bicyclo[1.1.1]pentan-1-yl)-7-fluoro-N-(2-fluoro-4-(trifluoromethyl)benzyl)imidazo[1,5-a]quinoxaline-8-carboxamide]: in assay [1], the EC50 selectivity is 45 and the EC50 was at most 1 nM. The CC50 in assay [2] is under 100 nM.

`CN(C(=O)c1cc2c(cc1F)nc(N)c1cncn12)[C@@H]1COc2cc(-c3cnn(C(F)F)c3)ccc21` [Ff-213, (S)-4-amino-N-(6-(1-(difluoromethyl)-1H-pyrazol-4-yl)-2,3-dihydrobenzofuran-3-yl)-7-fluoro-N-methylimidazo[1,5-a]quinoxaline-8-carboxamide]: in assay [1], the EC50 selectivity is given as 153 and the EC50 was in the range of 1 to 5 nM. For the same compound, the CC50 in assay [2] was under 100 nM.

In assay [1], `CN(C(=O)c1cc2c(cc1F)nc(N)c1cncn12)[C@@H]1COc2cc(-c3cnn(C4CC4)c3)ccc21` [Ff-215, (S)-4-amino-N-(6-(1-cyclopropyl-1H-pyrazol-4-yl)-2,3-dihydrobenzofuran-3-yl)-7-fluoro-N-methylimidazo[1,5-a]quinoxaline-8-carboxamide] yielded an EC50 selectivity of 224 and an EC50 of 1 to 5 nM. Besides, the CC50 in assay [2] was under 100 nM.

Take `Cn1cc(N(Cc2ccc(C(F)(F)F)cc2F)C(=O)c2ccc3nc(N)c4cncn4c3c2)cn1` [Ff-278, 4-amino-N-(2-fluoro-4-(trifluoromethyl)benzyl)-N-(1-methyl-1H-pyrazol-4-yl)imidazo[1,5-a]quinoxaline-8-carboxamide]: in assay [1], the EC50 selectivity is recorded as 47 and the EC50 was 1 to 5 nM. Besides, the CC50 in assay [2] is under 100 nM.

As to `CN(C(=O)c1cc2c(cc1F)nc(N)c1cncn12)[C@@H]1COCc2cc(-c3cnn(C(F)(F)F)c3)ccc21` [Ff-279, (S)-4-amino-7-fluoro-N-methyl-N-(7-(1-(trifluoromethyl)-1H-pyrazol-4-yl)isochroman-4-yl)imidazo[1,5-a]quinoxaline-8-carboxamide], in assay [1], the EC50 selectivity turned out to be 60 and the EC50 was at most 1 nM. Moreover, in assay [2], the CC50 is under 100 nM.

In assay [1], `CN(C(=O)c1cc2c(cc1F)nc(N)c1cncn12)[C@@H]1COCc2cc(-c3ccn(C(F)(F)F)n3)ccc21` [Ff-280, (S)-4-amino-7-fluoro-N-methyl-N-(7-(1-(trifluoromethyl)-1H-pyrazol-3-yl)isochroman-4-yl)imidazo[1,5-a]quinoxaline-8-carboxamide] had an EC50 selectivity of 118 and an EC50 of 1 to 5 nM. Moreover, the CC50 in assay [2] is under 100 nM.

In assay [1], `Nc1nc2cc(Cl)c(C(=O)N3CCOC[C@@H]3c3ccc(C(F)(F)F)cc3)cc2n2cncc12` [Ff-289, (S)-(4-amino-7-chloroimidazo[1,5-a]quinoxalin-8-yl)(3-(4-(trifluoromethyl)phenyl)morpholino)methanone] yielded an EC50 selectivity of 88 and an EC50 of at most 1 nM. Further, in assay [2], the CC50 is under 100 nM.

Regarding `Cc1ncc2c(N)nc3cc(F)c(C(=O)N(C)[C@@H]4COCc5nc(C(F)(F)F)ccc54)cc3n12` [Ff-304, (S)-4-amino-7-fluoro-N,1-dimethyl-N-(2-(trifluoromethyl)-5,8-dihydro-6H-pyrano[3,4-b]pyridin-5-yl)imidazo[1,5-a]quinoxaline-8-carboxamide], in assay [1], the EC50 selectivity was 127 and the EC50 lay within 1 to 5 nM. The CC50 in assay [2] was under 100 nM.

In assay [1], `CN(C(=O)c1cc2c(cc1F)nc(N)c1cncn12)[C@@H]1COc2cc(-n3cnc(C(F)(F)F)n3)ccc21` [Ff-324, (S)-4-amino-7-fluoro-N-methyl-N-(6-(3-(trifluoromethyl)-1H-1,2,4-triazol-1-yl)-2,3-dihydrobenzofuran-3-yl)imidazo[1,5-a]quinoxaline-8-carboxamide] yielded an EC50 selectivity of 53 and an EC50 of 1 to 5 nM. In addition, the CC50 in assay [2] was under 100 nM.
